Assay results: US6730672B2, “Aminoheterocyclic derivatives as antithrombotic or anticoagulant agents” (Zeneca Limited, priority 1994, dated 2004)

Target: human Factor Xa (Homo sapiens, UniProt P00742)
Test: Measurement of Factor Xa Inhibition (chromogenic substrate S-2765)
Format: biochemical
Details: test a), pH7.5, 37° C., read-out: IC50 against Factor Xa
Protocol: a) Measurement of Factor Xa Inhibition
An in vitro assay system was carried out based on the method of Kettner et al., J. Biol. Chem., 1990, 265, 18289-18297, whereby various concentrations of a test compound were dissolved in a pH7.5 buffer containing 0.5% of polyethylene glycol and incubated at 37° C. with human Factor Xa (0.001 Units/ml, 0.3 ml) for 15 minutes. The chromogenic substrate S-2765 (KabiVitum AB, 20 μM) was added and the mixture was incubated at 37° C. for 20 minutes whilst the absorbance at 405 nm was measured. The maximum reaction velocity (Vmax) was determined and compared with that of a control sample containing no test compound. Inhibitor potency was expressed as an IC50 value.

Chain of human Factor Xa (P00742 235-488 limits assumed): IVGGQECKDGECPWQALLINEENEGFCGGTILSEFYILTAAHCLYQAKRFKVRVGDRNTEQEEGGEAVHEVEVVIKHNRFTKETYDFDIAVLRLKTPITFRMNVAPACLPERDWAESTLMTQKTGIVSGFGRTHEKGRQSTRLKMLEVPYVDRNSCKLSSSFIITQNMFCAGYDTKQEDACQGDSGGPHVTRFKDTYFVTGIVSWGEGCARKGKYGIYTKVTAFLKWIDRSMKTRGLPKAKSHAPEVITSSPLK
Chain of human Factor Xa (P00742 41-179 partner limits assumed): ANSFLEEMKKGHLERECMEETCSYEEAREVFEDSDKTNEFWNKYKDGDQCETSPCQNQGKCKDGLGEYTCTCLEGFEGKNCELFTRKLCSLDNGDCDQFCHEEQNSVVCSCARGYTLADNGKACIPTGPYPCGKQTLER

Row | IC50 [µM] | SMILES
1 | 0.01 | O=C(C1CCN(c2ccncc2)CC1)N1CCN(S(=O)(=O)c2ccc(-c3ccc(Cl)cc3)cc2)CC1 [Example 41, Compound No. 3, 1-(4′-chloro-4-biphenylylsulphonyl)-4-[1-(4-pyridyl)-piperidin-4-ylcarbonyl]piperazine]

Target: human thrombin (Homo sapiens, UniProt P00734)
Test: Measurement of Thrombin Inhibition (chromogenic substrate S-2238)
Format: biochemical
Details: test b), read-out: IC50 against thrombin
Excerpt: b) Measurement of Thrombin Inhibition
The procedure of method a) was repeated except that human thrombin (0.005 Units/ml) and the chromogenic substrate S-2238 (KabiVitum AB) were employed.

Row | IC50 [µM] | SMILES
2 | 83 | O=C(C1CCN(c2ccncc2)CC1)N1CCN(S(=O)(=O)c2ccc(-c3ccc(Cl)cc3)cc2)CC1 [Example 41, Compound No. 3, 1-(4′-chloro-4-biphenylylsulphonyl)-4-[1-(4-pyridyl)-piperidin-4-ylcarbonyl]piperazine]

Test system: not given
Test: not given
Details: not given

Row | melting point | SMILES
3 | 225 to 228 °C (dec.) | O=C(O)C1CN(S(=O)(=O)c2ccc3ccccc3c2)CCN1C(=O)C1CCN(c2ccncc2)CC1 (stereo not drawn) [Example 61, 2-carboxy-4-(2-naphthylsulphonyl)-1-[1-(4-pyridyl)piperidin-4-ylcarbonyl]piperazine]
4 | 213 to 217 °C | Cc1ccc(-c2ccc(S(=O)(=O)N3CCN(C(=O)C4CCN(c5ccncc5)CC4)CC3)cc2)cc1 [Example 58, 1-(4′-methylbiphenyl-4-ylsulphonyl)-4-[1-(4-pyridyl)piperidin-4-ylcarbonyl]piperazine]
5 | 207 to 209 °C | O=C(c1ccc(NS(=O)(=O)/C=C/c2ccc(Cl)cc2)cc1)N1CCN(c2ccncc2)CC1 [Example 89, N-{4-[4-(4-pyridyl)piperazin-1-ylcarbonyl]phenyl}-(E)-4-chlorostyrenesulphonamide]
6 | 186 to 188 °C | O=C(C1CCN(c2ccncc2)CC1)N1CCN(S(=O)(=O)c2ccc3ccccc3c2)C(Cc2ccccc2)C1 (stereo not drawn) [Example 66, 2-benzyl-1-(2-naphthylsulphonyl)-4-[1-(4-pyridyl)piperidin-4-ylcarbonyl]piperazine]
7 | 210 to 212 °C | Cc1cc(N2CCC(C(=O)N3CCN(S(=O)(=O)c4ccc5cc(Cl)ccc5c4)CC3)CC2)nc(N)n1 [Example 86, 4-[1-(2-amino-6-methylpyrimidin-4-yl)piperidin-4-ylcarbonyl]-1-(6-chloronaphth-2-ylsulphonyl)piperazine]
8 | 229 to 230 °C | O=C(C1CCN(S(=O)(=O)c2ccc3cc(Br)ccc3c2)CC1)N1CCN(c2ccncc2)CC1 [Example 92, 1-[1-(6-bromonaphth-2-ylsulphonyl)piperidin-4-ylcarbonyl]-4-(4-pyridyl)piperazine]
9 | 235 to 237 °C | O=C(C1CN(S(=O)(=O)c2ccc3cc(Br)ccc3c2)CCN1C(=O)C1CCN(c2ccncc2)CC1)N1CCOCC1 (stereo not drawn) [Example 84, 4-(6-bromonaphth-2-ylsulphonyl)-2-morpholinocarbonyl-1-[1-(4-pyridyl)-piperidin-4-ylcarbonyl]piperazine]
10 | 216 to 222 °C (dec.) | O=C(O)C1CN(S(=O)(=O)c2ccc3cc(Br)ccc3c2)CCN1C(=O)C1CCN(c2ccncc2)CC1 (stereo not drawn) [Example 83, 4-(6-bromonaphth-2-ylsulphonyl)-2-carboxy-1-[1-(4-pyridyl)piperidin-4-ylcarbonyl]piperazine]
11 | 218 to 219 °C | O=C(C1CCN(c2ccncn2)CC1)N1CCN(S(=O)(=O)c2ccc3cc(Cl)ccc3c2)CC1 [Example 69, 1-(6-chloronaphth-2-ylsulphonyl)-4-[1-(4-pyrimidinyl)-piperidin-4-ylcarbonyl]piperazine]
12 | 209 to 210 °C | O=C(C1CCN(c2ccncn2)CC1)N1CCN(S(=O)(=O)/C=C/c2ccc(Cl)cc2)CC1 [Example 57, 1-[(E)-4-chlorostyrylsulphonyl]-4-[1-(4-pyrimidinyl)piperidin-4-ylcarbonyl]piperazine]
13 | 178 to 180 °C | O=C(C1CCN(c2ccncc2)CC1)N1CCCN(S(=O)(=O)c2ccc3ccccc3c2)CC1 [Example 49, 1-(2-naphthylsulphonyl)-4-[1-(4-pyridyl)piperidin-4-ylcarbonyl]-1,4-diazepane]
14 | 117 to 121 °C | CCOC(=O)C1CN(S(=O)(=O)c2ccc3cc(Br)ccc3c2)CCN1C(=O)C1CCN(c2ccncc2)CC1 (stereo not drawn) [Example 82, 4-(6-bromonaphth-2-ylsulphonyl)-2-ethoxycarbonyl-1-[1-(4-pyridyl)-piperidin-4-ylcarbonyl]piperazine]
15 | 265 to 267 °C | Nc1nccc(N2CCC(C(=O)N3CCN(S(=O)(=O)c4ccc5cc(Cl)ccc5c4)CC3)CC2)n1 [Example 70, 4-[1-(2-aminopyrimidin-4-yl)piperidin-4-ylcarbonyl]-1-(6-chloronaphth-2-ylsulphonyl)piperazine]
16 | 230 to 233 °C | O=C(C1CCN(c2nc(Cl)nc(Cl)n2)CC1)N1CCN(S(=O)(=O)c2ccc3cc(Cl)ccc3c2)CC1 [Example 73, 1-(6-chloronaphth-2-ylsulphonyl)-4-[1-(4,6-dichloro-1,3,5-triazin-2-yl)piperidin-4-ylcarbonyl]piperazine]
17 | 224 to 226 °C | O=C(C1CCN(c2ccncc2)CC1)N1CCN(S(=O)(=O)c2ccc(-c3ccccn3)cc2)CC1 [Example 60, 1-[4-(2-pyridyl)phenylsulphonyl]-4-[1-(4-pyridyl)piperidin-4-ylcarbonyl]piperazine]
18 | 203 to 205 °C | O=C(C1CCN(c2ccncn2)CC1)N1CCN(S(=O)(=O)c2ccc3ccccc3c2)CC1 [Example 55, 1-(2-naphthylsulphonyl)-4-[1-(4-pyrimidinyl)piperidin-4-ylcarbonyl]-piperazine]
19 | 210 to 212 °C | O=C(N1CCN(c2ccncc2)CC1)N1CCN(S(=O)(=O)c2ccc3ccccc3c2)CC1 [Example 50, 1-(2-naphthylsulphonyl)-4-[4-(4-pyridyl)-piperazin-1-ylcarbonyl]piperazine]

More lines, now with the values behind:

Row | SMILES | melting point
20 | Cl.O=C(c1ccc(NS(=O)(=O)c2ccc(-c3ccc(Br)cc3)cc2)cc1)N1CCN(c2ccncc2)CC1 | 201 to 205 °C
21 | CCOC(=O)C(CNC(=O)C1CCN(c2ccncc2)CC1)NC(=O)CNS(=O)(=O)c1ccc2ccccc2c1 (stereo not drawn) [Example 6, N-{1-ethoxycarbonyl-2-[1-(4-pyridyl)-piperidin-4-ylcarbonylamino]ethyl}-2-(2-naphthalenesulphonamido)-acetamide] | 142 to 145 °C
22 | O=C(CNS(=O)(=O)c1ccc2ccccc2c1)N[C@@H](CC(=O)N1CCN(c2ccncc2)CC1)C(=O)N1CCCCC1 [Example 18, 2-(2-naphthalenesulphonamido)-N-{(1S)-1-(piperidinocarbonyl)-2-[4-(4-pyridyl)piperazin-1-ylcarbonyl]ethyl}-acetamide] | 201 to 203 °C
23 | O=C(CCNS(=O)(=O)c1ccc2ccccc2c1)NC(CNC(=O)C1CCN(c2ccncc2)CC1)C(=O)N1CCCCC1 (stereo not drawn) [Example 20, 3-(2-naphthalenesulphonamido)-N-{1-(piperidinocarbonyl)-2-[1-(4-pyridyl)piperidin-4-ylcarbonylamino]ethyl}propionamide] | 201 to 203 °C
24 | O=C(CNS(=O)(=O)c1ccc2ccccc2c1)NCCNC(=O)C1CCN(c2ccncc2)CC1 [Example 30, 2-(2-naphthalenesulphonamido)-N-{2-[1-(4-pyridyl)piperidin-4-ylcarbonylamino]ethyl}acetamide] | 107 to 109 °C
25 | O=C(C1CCN(c2ccncc2)CC1)N1CCN(S(=O)(=O)c2ccc3ccccc3c2)CC1 [Example 2, 1-(2-naphthylsulphonyl)-4-[1-(4-pyridyl)piperidin-4-ylcarbonyl]piperazine] | 172 to 173 °C
26 | O=C(CC1CCN(c2ccncc2)CC1)NCC(NC(=O)CNS(=O)(=O)c1ccc2ccccc2c1)C(=O)N1CCCCC1 (stereo not drawn) [Example 4, 2-(2-naphthalenesulphonamido)-N-(1-piperidinocarbonyl-2-{2-[1-(4-pyridyl)piperidin-4-yl]acetamido}ethyl)acetamide] | 148 to 149 °C
27 | O=C(CNS(=O)(=O)c1ccc2ccccc2c1)NCCNC(=O)C1CCN(c2ccncn2)CC1 [Example 32, 2-(2-naphthalenesulphonamido)-N-{2-[1-(4-pyrimidinyl)piperidin-4-ylcarbonylamino]ethyl}acetamide] | 178 to 179 °C
28 | O=C(O)C1CN(C(=O)C2CCN(c3ccncc3)CC2)CCN1S(=O)(=O)c1ccc2ccccc2c1 (stereo not drawn) [Example 43, 1-(2-naphthylsulphonyl)-4-[1-(4-pyridyl)piperidin-4-ylcarbonyl]-piperazine-2-carboxylic acid] | 188 to 193 °C
29 | Cc1ccc(NC(=O)NC(CNC(=O)C2CCN(c3ccncc3)CC2)C(=O)N2CCCCC2)cc1 (stereo not drawn) [Example 22, N-{2-piperidinocarbonyl-2-[3-(4-tolyl)ureido]ethyl}-1-(4-pyridyl)-piperidine-4-carboxamide] | 252 to 253 °C
30 | O=C(CNS(=O)(=O)c1ccc2ccccc2c1)NC(CNC(=O)N1CCN(c2ccncc2)CC1)C(=O)N1CCCCC1 (stereo not drawn) [Example 3, 2-(2-naphthalenesulphonamido)-N-{1-piperidinocarbonyl-2-[4-(4-pyridyl)piperazin-1-ylcarbonylamino]-ethyl}acetamide] | 223 to 226 °C
31 | O=C(CNS(=O)(=O)c1ccc2ccccc2c1)NCC(NC(=O)C1CCN(c2ccncc2)CC1)C(=O)N1CCCCC1 (stereo not drawn) [Example 11, 2-(2-naphthalenesulphonamido)-N-{2-piperidinocarbonyl-2-[1-(4-pyridyl)piperidin-4-ylcarbonylamino]ethyl}acetamide] | 200 to 202 °C
32 | Cc1cc(N2CCC(C(=O)NCCNC(=O)CNS(=O)(=O)c3ccc4ccccc4c3)CC2)nc(N)n1 [Example 34, N-{2-[1-(2-amino-6-methylpyrimidin-4-yl)piperidin-4-ylcarbonylamino]ethyl}-2-(2-naphthalenesulphonamido)acetamide] | 225 to 226 °C
33 | O=C(CNS(=O)(=O)c1ccc2ccccc2c1)NC(CNC(=O)C1CCN(c2ccncc2)CC1)C(=O)O (stereo not drawn) [Example 9, 2-[2-(2-naphthalenesulphonamido)acetamido]-3-[1-(4-pyridyl)piperidin-4-ylcarbonylamino]propionic acid] | 108 to 111 °C (dec.)
